± gives the expanded uncertainty stated by the source.
Settings: Liquid; for speed of sound: Pulse-echo method; for mass density: Vibrating tube method

CCCCCCCC/C=C\CCCCCCCC(=O)OC [methyl cis-9-octadecenoate]
Settings | mass density, 343.15 K [kg/m3] | mass density, 353.15 K [kg/m3] | mass density, 363.15 K [kg/m3] | mass density, 373.15 K [kg/m3] | mass density, 383.15 K [kg/m3] | mass density, 393.15 K [kg/m3] | speed of sound, 343.15 K [m/s] | speed of sound, 363.15 K [m/s] | speed of sound, 383.15 K [m/s] | speed of sound, 393.15 K [m/s]
101.3 kPa | – | 830.4 ± 0.6 | 823.2 ± 0.6 | 815.8 ± 0.6 | 808.4 ± 0.6 | 800.8 ± 0.6 | – | 1170.9 ± 2.7 | 1108.9 ± 2.6 | 1078.5 ± 2.5
10000 kPa | – | 838 ± 0.6 | 831.3 ± 0.6 | 824.2 ± 0.6 | 817.4 ± 0.6 | 810.2 ± 0.6 | – | 1228.2 ± 2.8 | 1170.4 ± 2.7 | 1142.4 ± 2.6
20000 kPa | – | 845.1 ± 0.6 | 838.7 ± 0.6 | 832 ± 0.6 | 825.5 ± 0.6 | 818.5 ± 0.6 | – | 1280.6 ± 2.9 | 1226.5 ± 2.8 | 1200 ± 2.7
30000 kPa | – | 851.5 ± 0.6 | 845.5 ± 0.6 | 839.1 ± 0.6 | 832.7 ± 0.7 | 826.2 ± 0.7 | – | 1329.3 ± 3 | 1277.8 ± 2.9 | 1252 ± 2.8
40000 kPa | – | 857.5 ± 0.7 | 851.8 ± 0.7 | 845.7 ± 0.7 | 839.5 ± 0.7 | 833.2 ± 0.7 | – | 1374 ± 3 | 1324.6 ± 2.9 | 1299.9 ± 2.9
50000 kPa | – | 863.3 ± 0.7 | 857.7 ± 0.7 | 851.8 ± 0.7 | 845.9 ± 0.7 | 839.6 ± 0.7 | – | 1414.4 ± 3.1 | 1367.4 ± 3 | 1343.8 ± 3
60000 kPa | – | 868.7 ± 0.7 | 863.1 ± 0.7 | 857.5 ± 0.7 | 851.8 ± 0.7 | 845.7 ± 0.7 | – | 1454.6 ± 3.2 | 1407.7 ± 3.1 | 1384.5 ± 3
70000 kPa | – | 873.8 ± 0.7 | 868.4 ± 0.7 | 862.9 ± 0.8 | 857.5 ± 0.8 | 851.7 ± 0.8 | – | 1492.2 ± 3.3 | 1446.1 ± 3.2 | 1423.6 ± 3.1
80000 kPa | 884.4 ± 0.7 | 878.7 ± 0.8 | 873.3 ± 0.8 | 868.2 ± 0.8 | 862.8 ± 0.8 | 857.2 ± 0.8 | 1575.4 ± 3.4 | 1527.5 ± 3.3 | 1481.7 ± 3.2 | 1460.2 ± 3.2
90000 kPa | 889 ± 0.8 | 883.6 ± 0.8 | 878.1 ± 0.8 | 873 ± 0.8 | 867.9 ± 0.8 | 862.4 ± 0.8 | 1609.4 ± 3.5 | 1563.5 ± 3.4 | 1516.9 ± 3.3 | 1495.7 ± 3.3
100000 kPa | 893.4 ± 0.8 | 888.2 ± 0.8 | 882.9 ± 0.8 | 878.1 ± 0.8 | 873.2 ± 0.8 | 867.6 ± 0.9 | 1641.6 ± 5.1 | 1597.2 ± 5 | 1550.2 ± 4.9 | 1529.7 ± 4.8
110000 kPa | – | – | – | – | – | – | 1672.6 ± 5.2 | 1629.1 ± 5.1 | 1583.4 ± 5 | 1562.8 ± 4.9
120000 kPa | – | – | – | – | – | – | 1701.9 ± 5.3 | 1659.3 ± 5.2 | 1615.8 ± 5.1 | 1593.9 ± 5
130000 kPa | – | – | – | – | – | – | 1729.9 ± 5.4 | 1687.5 ± 5.3 | 1645.9 ± 5.1 | 1624.5 ± 5.1
140000 kPa | – | – | – | – | – | – | 1757.3 ± 5.5 | 1715.4 ± 5.3 | 1674.2 ± 5.2 | 1654.6 ± 5.2
150000 kPa | – | – | – | – | – | – | 1783.8 ± 5.5 | 1741.8 ± 5.4 | 1701.5 ± 5.3 | 1683 ± 5.2
160000 kPa | – | – | – | – | – | – | 1809.7 ± 5.6 | 1766.9 ± 5.5 | 1729.4 ± 5.4 | 1710.3 ± 5.3
170000 kPa | – | – | – | – | – | – | 1834.3 ± 5.7 | 1793.1 ± 5.6 | 1755.3 ± 5.5 | 1736.2 ± 5.4
180000 kPa | – | – | – | – | – | – | 1859.7 ± 5.8 | 1817.7 ± 5.6 | 1781.4 ± 5.5 | 1761.2 ± 5.5
190000 kPa | – | – | – | – | – | – | 1883.4 ± 5.8 | 1841.2 ± 5.7 | 1805.7 ± 5.6 | 1785.3 ± 5.5
200000 kPa | – | – | – | – | – | – | 1905.8 ± 5.9 | 1864.9 ± 5.8 | 1828.3 ± 5.7 | 1809.7 ± 5.6
